By IC50 is commonly meant the concentration that gives 50% inhibition. Read a high IC50 as weaker potency.

For one test, the target named is T1, DYRK1A protein (Homo sapiens, UniProt Q13627).
T1 construct: the peptide phosphorylated by His-DYRK1A-ΔC is separated from the unphosphorylated peptide; His (N)
Put plainly: DYRK1A activity assay (fluorescein peptide substrate, UFLC with fluorescence detection). Format: biochemical. The settings on record: for IC50: DYRK1A protein, ΔDYRK1A enzyme, 37° C.

Another test has as its system CAMKII protein. Put plainly: In vivo phosphorylation state of CAMKII in brain (slot-blot). The settings on record: brain of TG animals (trisomy model for DYRK1A gene), intraperitoneal 1 mg/kg at t0 and t16 h, sacrifice t17-t18. The protocol:
(§1) To test in vivo the efficacy of these inhibitors, the effect of the compounds according to the invention on the phosphorylation state of two DYRK1A downstream targets in signaling pathways was measured: GSKIII beta protein (FIG. 1a) and CAMKII protein (FIG. 1b).
(§2) These measurements were carried out in the brain of control animals (WT) and of animals of an animal model of trisomy for DYRK1A gene (TG).
(§3) To that end, the compounds were administered by intraperitoneal injection in the amount of 1 mg/kg at t0 then at t16 (hours) and the animals were sacrificed at t17-t18. Brain proteins were then extracted and the amounts of GSKIIIbeta, pGSKIIIbeta, CAMKII and pCAMKII proteins were measured by a slot-blot technique with suitable antibodies.
(§4) The results of these tests are presented in FIG. 1: the y-axis represents the ratio of phosphorylated protein to unphosphorylated protein measured on the untreated animals (WT and TG) and on the animals treated with the compounds according to the invention.

Another test relates to GSKIII beta protein. The test can be described thus: In vivo phosphorylation state of GSKIII beta in brain (slot-blot). The settings on record: brain of TG animals (trisomy model for DYRK1A gene), intraperitoneal 1 mg/kg at t0 and t16 h, sacrifice t17-t18. The protocol: as §1, §2, §3, §4

`c1ccc(-c2cnc3[nH]cc(-c4ccccc4)c3c2)cc1` [B, 3-phenyl-5-phenyl-1H-pyrrolo[2,3-b]pyridine] had an IC50 against DYRK1A protein of 7490 nM. In turn, `Oc1ccc(-c2cnc3[nH]cc(-c4ccccc4)c3c2)cc1` [C, 3-phenyl-5-(4-hydroxyphenyl)-1H-pyrrolo[2,3-b]pyridine] registered a concentration for half-maximal inhibition (IC50) on DYRK1A protein of 326 nM. In addition, the “correction of hypophosphorylated CAMKII (pCAMKII/CAMKII ratio)” value (“correction … (pCAMKII/CAMKII ratio)” for short) with CAMKII protein is “do not produce a sufficient correction”. Also, the “correction of hyperphosphorylated GSKIIIbeta (pGSK/GSK ratio)” value (from here on “correction … (pGSK/GSK ratio)”) in the test on GSKIII beta protein is given as “excessive correction”. With `Oc1ccccc1-c1cnc2[nH]cc(-c3ccccc3)c2c1` [Compound A, 3-phenyl-5-(2-hydroxyphenyl)-1H-pyrrolo[2,3-b]pyridine], the IC50 at DYRK1A protein was 3590 nM.

As to `Oc1ccc(-c2cnc3[nH]cc(-c4ccccc4)c3c2)cc1O` [E, 3-phenyl-5-(3,4-dihydroxyphenyl)-1H-pyrrolo[2,3-b]pyridine], the IC50 against DYRK1A protein amounted to 160 nM. In the case of `Oc1ccc(-c2cnc3[nH]cc(-c4ccccc4)c3c2)c(O)c1` [F, 3-phenyl-5-(2,4-dihydroxyphenyl)-1H-pyrrolo[2,3-b]pyridine], half-maximal inhibition against DYRK1A protein (IC50) was put at 154 nM. Still for that read-out and setting: then `Oc1cccc(-c2cnc3[nH]cc(-c4cccc(O)c4)c3c2)c1` [Ia, 3-(3-hydroxyphenyl)-5-(3-hydroxyphenyl)-1H-pyrrolo[2,3-b]pyridine], with 105 nM. Take `Oc1ccc(-c2cnc3[nH]cc(-c4ccc(O)cc4)c3c2)cc1` [Ib, 3-(4-hydroxyphenyl)-5-(4-hydroxyphenyl)-1H-pyrrolo[2,3-b]pyridine]: the IC50 on DYRK1A protein is 23.1 nM. Moreover, the “correction … (pCAMKII/CAMKII ratio)” value in the test with CAMKII protein is reported as “return the phosphorylation level to the value observed in the control animals”. For the same compound, the “correction … (pGSK/GSK ratio)” value in the test with GSKIII beta protein is “effective correction”.

In turn, `COc1ccc(-c2c[nH]c3ncc(-c4ccc(O)cc4)cc23)cc1F` [Ic, 3-(3-fluoro-4-methoxyphenyl)-5-(4-hydroxyphenyl)-1H-pyrrolo[2,3-b]pyridine] showed an IC50 against DYRK1A protein of 41.5 nM.

On DYRK1A protein, `Oc1ccc(-c2c[nH]c3ncc(-c4ccc(O)cc4O)cc23)cc1` [I′a, 3-(4-hydroxyphenyl)-5-(2,4-dihydroxyphenyl)-1H-pyrrolo[2,3-b]pyridine] had an IC50 of 11.7 nM. Further, the “correction … (pCAMKII/CAMKII ratio)” value in the test on CAMKII protein is reported as “return the phosphorylation level to the value observed in the control animals”. Besides, the “correction … (pGSK/GSK ratio)” value in the test on GSKIII beta protein was “effective correction”. In turn, `Oc1ccc(-c2c[nH]c3ncc(-c4ccc(O)c(O)c4)cc23)cc1` [I′b, 3-(4-hydroxyphenyl)-5-(3,4-dihydroxyphenyl)-1H-pyrrolo[2,3-b]pyridine] displayed an IC50 at DYRK1A protein of 3 nM. In the case of `Oc1ccc(-c2cnc3[nH]cc(-c4ccc(O)c(O)c4)c3c2)cc1O` [I′c, 3-(3,4-dihydroxyphenyl)-5-(3,4-dihydroxyphenyl)-1H-pyrrolo[2,3-b]pyridine], the IC50 against DYRK1A protein was 12.4 nM. In addition, the “correction … (pCAMKII/CAMKII ratio)” value with CAMKII protein is reported as “do not produce a sufficient correction”. Further, the “correction … (pGSK/GSK ratio)” value in the test on GSKIII beta protein is “excessive correction”.

`Oc1ccc(-c2cnc3[nH]cc(-c4ccc(O)c(O)c4)c3c2)c(O)c1` [I′d, 3-(3,4-dihydroxyphenyl)-5-(2,4-dihydroxyphenyl)-1H-pyrrolo[2,3-b]pyridine]: the IC50 against DYRK1A protein amounted to 14.3 nM. `Oc1ccc(O)c(-c2cnc3[nH]cc(-c4ccc(O)c(O)c4)c3c2)c1` [I′e, 3-(3,4-dihydroxyphenyl)-5-(2,5-dihydroxyphenyl)-1H-pyrrolo[2,3-b]pyridine] returned an IC50 at DYRK1A protein of 39.1 nM. Same read-out and setting: the value for `Oc1ccc(-c2cnc3[nH]cc(-c4ccc(O)c(F)c4)c3c2)cc1` [I′h, 3-(3-fluoro-4-hydroxyphenyl)-5-(4-hydroxyphenyl)-1H-pyrrolo[2,3-b]pyridine] was 9.3 nM.

For “epigallocatechin-3-gallate [reference compound]”, the “IC50 values for known DYRK1A inhibitors” value at DYRK1A protein (validation of the test, compared with literature radioactive kinase tests) is listed as “Values similar to those of the literature”.

The values above are taken from patent US9447093B2, “3,5-diarylazaindoles as DYRK1A protein inhibitors for the treatment of cognitive deficiencies associated with Down's syndrome and with Alzheimer's disease” (Centre National De La Recherche Scientifique, priority 2012, dated 2016).
